From the supplement of paper PMC10307832

Experiments:
Test in all cases: relative viability (nuclei count vs DMSO), 5 days (fraction); higher = more cells survive
GSK126 + Foretinib = compound: CC[C@H](C)N1C=C(C2=C(C=C(C=C21)C3=CN=C(C=C3)N4CCNCC4)C(=O)NCC5=C(C=C(NC5=O)C)C)C [GSK126] + COc1cc2c(Oc3ccc(NC(=O)C4(C(=O)Nc5ccc(F)cc5)CC4)cc3F)ccnc2cc1OCCCN1CCOCC1 [Foretinib] (partner 0.25 µM)
Outline: (§1)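 Lung cancer cell lines were seeded in 1536-well plates and dosed by pin tool the next day, with either a single drug or a fixed anchor-drug dose combined with five library-drug doses (not always all listed) spaced in √10 steps. Five days later, one step fixed the cells and stained their nuclei (final 0.05% Triton X-100, 1% formaldehyde, 1 ug/ml Hoechst), and nuclei were counted on 4× images. Relative viability is the nuclei count in treated wells divided by the count in vehicle wells, and each value is the median of duplicate plates.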

GSK126 + Decitabine = compound: CC[C@H](C)N1C=C(C2=C(C=C(C=C21)C3=CN=C(C=C3)N4CCNCC4)C(=O)NCC5=C(C=C(NC5=O)C)C)C [GSK126] + Nc1ncn([C@H]2C[C@H](O)[C@@H](CO)O2)c(=O)n1 [Decitabine] (partner 2 µM)
Outline: as §1

MLN4924 + Linsitinib = compound: NS(=O)(=O)OC[C@@H]1C[C@@H](n2ccc3c(N[C@H]4CCc5ccccc54)ncnc32)C[C@@H]1O [MLN4924] + C[C@]1(O)C[C@@H](c2nc(-c3ccc4ccc(-c5ccccc5)nc4c3)c3c(N)nccn32)C1 [Linsitinib] (partner 1 µM)
Outline: as §1

MLN4924 + Phenformin = compound: NS(=O)(=O)OC[C@@H]1C[C@@H](n2ccc3c(N[C@H]4CCc5ccccc54)ncnc32)C[C@@H]1O [MLN4924] + N=C(N)NC(=N)NCCc1ccccc1 [Phenformin] (partner 250 µM)
Outline: as §1

UMC-11
relative viability (GSK126 + Foretinib; first compound 0.08 µM): 1.04
relative viability (GSK126 + Foretinib; first compound 0.253 µM): 1.04
relative viability (GSK126 + Foretinib; first compound 0.8 µM): 1.02
relative viability (GSK126 + Foretinib; first compound 2.53 µM): 1.03
relative viability (GSK126 + Foretinib; first compound 8 µM): 1.19
relative viability (GSK126 + Decitabine; first compound 0.08 µM): 0.695
relative viability (GSK126 + Decitabine; first compound 0.253 µM): 0.557
relative viability (GSK126 + Decitabine; first compound 0.8 µM): 0.626
relative viability (GSK126 + Decitabine; first compound 2.53 µM): 0.604
relative viability (GSK126 + Decitabine; first compound 8 µM): 0.658
relative viability (MLN4924 + Linsitinib; first compound 0.04 µM): 0.645
relative viability (MLN4924 + Linsitinib; first compound 0.1265 µM): 0.331
relative viability (MLN4924 + Linsitinib; first compound 0.4 µM): 0.238
relative viability (MLN4924 + Linsitinib; first compound 1.265 µM): 0.194
relative viability (MLN4924 + Linsitinib; first compound 4 µM): 0.153
relative viability (MLN4924 + Phenformin; first compound 0.04 µM): 0.322
relative viability (MLN4924 + Phenformin; first compound 0.1265 µM): 0.287
relative viability (MLN4924 + Phenformin; first compound 0.4 µM): 0.266
relative viability (MLN4924 + Phenformin; first compound 1.265 µM): 0.185
relative viability (MLN4924 + Phenformin; first compound 4 µM): 0.189
